The source made the active and inactive calls. No cut-off for these calls is given here.

The subject of data set [1] is Acinetobacter baumannii. As to the kind of experiment: Inhibition of Acinetobacter baumannii AB5711 biofilm formation at 100 uM after 24 hrs by crystal violet staining-based static MBEC biofilm assay. It is filed as functional, organism-based.
The subject of data set [2] is Acinetobacter baumannii. As to the kind of experiment: Inhibition of Acinetobacter baumannii AB5711 biofilm formation at 200 uM after 24 hrs by crystal violet staining-based static MBEC biofilm assay. The format is functional, organism-based.
In data set [3] the test system is Acinetobacter baumannii. As to the kind of experiment: Inhibition of Acinetobacter baumannii AB5711 biofilm formation assessed as inhibition of cell adherence to surface at 100 uM by crystal violet staining-based modified microtiter biofilm assay. The format is functional, organism-based.
For data set [4], the system named is Acinetobacter baumannii. As to the kind of experiment: Inhibition of Acinetobacter baumannii AB5711 biofilm formation in 14-French silicone urethral catheter at 200 uM measured after overnight incubation by crystal violet staining-based spectrophotometry. The format is functional, organism-based.
Another data set concerns RAW264.7. As to the kind of experiment: Cytotoxicity against mouse RAW264.7 cells assessed as reduction in cell viability at >200 uM after 24 hrs by trypan blue-staining based microscopic analysis. The following applies: raw264.7, 24 h.

Turning to `COc1cc(C(=O)NNC(=O)c2ccc(S(=O)(=O)C3CCC(C)CC3)cc2)cc(OC)c1OC` (stereo not given), the inhibition result with Acinetobacter baumannii [1] and in the data set on Acinetobacter baumannii [4] was “inactive” throughout. The inhibition result in the data set on Acinetobacter baumannii [2] and with Acinetobacter baumannii [3] was “Active” each time. Besides, the Activity entry in the data set with RAW264.7 is reported as “Toxic”.

As for `COc1cc(C(=O)NNC(=S)NC(C)(C)C)cc(OC)c1OC`, the inhibition entry in the data set on Acinetobacter baumannii [1] is “inactive”. In addition, the inhibition result with Acinetobacter baumannii [2], in the data set with Acinetobacter baumannii [3] and in the data set on Acinetobacter baumannii [4] was “Active” in each case. For the same molecule, in the data set on RAW264.7, the Activity result is given as “Toxic”.

As to `COc1cc(C(=O)NN2c3ccccc3C(C)(C)C(C)(C)c3ccccc32)cc(OC)c1OC`, the inhibition entry with Acinetobacter baumannii [1] is “inactive”. Moreover, the inhibition result in the data set on Acinetobacter baumannii [2], in the data set with Acinetobacter baumannii [3] and in the data set with Acinetobacter baumannii [4] was “Active” throughout. Also, the Activity entry with RAW264.7 is reported as “Toxic”.

In the case of `COc1cc(C(=O)NNC(=O)c2cccc(Cl)c2)cc(OC)c1OC`, the inhibition entry with Acinetobacter baumannii [1] was “inactive”. The inhibition result in the data set on Acinetobacter baumannii [2], with Acinetobacter baumannii [3] and in the data set on Acinetobacter baumannii [4] was “Active” throughout. Moreover, in the data set with RAW264.7, the Activity result is recorded as “Toxic”.

`COc1ccccc1C(=O)NNC(=O)c1cc(OC)c(OC)c(OC)c1`: the inhibition entry in the data set on Acinetobacter baumannii [1] and in the data set with Acinetobacter baumannii [4] was “inactive” each time. Further, the inhibition entry in the data set on Acinetobacter baumannii [2] and with Acinetobacter baumannii [3] was “Active” each time. The Activity entry in the data set with RAW264.7 is listed as “Toxic”.

For `COc1cc(C(=O)N2N=C(C3CC3)CC2(O)C(F)(F)F)cc(OC)c1OC` (stereo not given), in the data set on Acinetobacter baumannii [1], the inhibition result was “inactive”. The inhibition result in the data set with Acinetobacter baumannii [2], in the data set with Acinetobacter baumannii [3] and in the data set on Acinetobacter baumannii [4] was “Active” in each case. Further, the Activity result in the data set on RAW264.7 is “Toxic”.

`NNC(=O)c1cc(O)c(O)c(O)c1`: in the data set with Acinetobacter baumannii [1], the inhibition entry is “inactive”. In addition, the inhibition entry in the data set on Acinetobacter baumannii [2], in the data set on Acinetobacter baumannii [3] and in the data set with Acinetobacter baumannii [4] was “Active” each time. Besides, in the data set with RAW264.7, the Activity entry is listed as “Toxic”.

`CCNC(=S)NNC(=O)c1cc(OC)c(OC)c(OC)c1`: the inhibition entry in the data set with Acinetobacter baumannii [1] was “inactive”. Further, the inhibition result in the data set on Acinetobacter baumannii [2], with Acinetobacter baumannii [3] and in the data set on Acinetobacter baumannii [4] was “Active” in each case. In the data set with RAW264.7, the Activity entry is “Toxic”.

The values above are taken from ChEMBL document CHEMBL3400087, “Modulating Acinetobacter baumannii biofilm development with molecules containing 3,4,5-trimethoxy-N,N',N'-trimethylbenzohydrazide moiety” (Bioorg Med Chem Lett, 2015).
